{
  "source": "ChEMBL document CHEMBL4732067",
  "about": "“Synthesis and evaluation of new compounds bearing 3-(4-aminopiperidin-1-yl)methyl magnolol scaffold as anticancer agents for the treatment of non-small cell lung cancer via targeting autophagy” (Eur J Med Chem, 2021)",
  "key": {"NCI-H460 [1]": {"tested_on": "NCI-H460", "assay": "Induction of autophagy in human NCI-H460 cells assessed as up regulation of Beclin 1 protein expression after 24 hrs by Western blot analysis", "type": "functional, cell-based", "settings": "dose 0.5-10 µM"}, "[2]": {"assay": "Toxicity in nude BALB/c mouse xenografted with C26 cells assessed as abnormalities in kidney size and morphology at 50 mg/kg, po administered once daily", "type": "organism-based", "settings": "in vivo"}, "NCI-H460 [3]": {"tested_on": "NCI-H460", "assay": "Induction of autophagy in human NCI-H460 cells assessed as up regulation of LC3-2 protein expression after 24 hrs by Western blot analysis", "type": "functional, cell-based", "settings": "dose 0.5-10 µM"}, "[4]": {"assay": "Toxicity in nude BALB/c mouse xenografted with C26 cells assessed as abnormalities in heart size and morphology at 50 mg/kg, po administered once daily", "type": "organism-based", "settings": "in vivo"}, "[5]": {"assay": "Toxicity in nude BALB/c mouse xenografted with human NCI-H460 cells assessed as abnormalities in tissue at 20 to 40 mg/kg, po administered once daily", "type": "organism-based", "settings": "in vivo, dose 20-40 mg/kg"}, "NCI-H460 [6]": {"tested_on": "NCI-H460", "assay": "Induction of apoptosis in human NCI-H460 cells assessed as viable cells at 10 uM after 48 hrs by Annexin V-FITC/propidium iodide staining based flow cytometric analysis (reference value: 91.528 %)", "type": "functional", "settings": "read-out: Activity"}, "[7]": {"assay": "Toxicity in nude BALB/c mouse xenografted with C26 cells assessed as abnormalities in liver size and morphology at 50 mg/kg, po administered once daily", "type": "organism-based", "settings": "in vivo"}, "[8]": {"assay": "Toxicity in nude BALB/c mouse xenografted with C26 cells assessed as change in body weight at 50 mg/kg, po administered once daily and measured every two days", "type": "organism-based", "settings": "in vivo"}, "NCI-H460 [9]": {"tested_on": "NCI-H460", "assay": "Antitumor activity against human NCI-H460 cells xenografted in nude BABL/c mouse assessed as tumor growth inhibition at 20 mg/kg, po administered once daily and measured every two days in presence of chloroquine diphosphate by caliper method relative to control", "type": "functional", "settings": "48 h, read-out: TGI"}, "[10]": {"assay": "Metabolic stability in human liver microsomes assessed as half life", "type": "ADME, Microsome"}, "[11]": {"assay": "Metabolic stability in human liver microsomes assessed as intrinsic clearance per gram protein", "type": "ADME, Microsome"}, "NCI-H460 [12]": {"tested_on": "NCI-H460", "assay": "Induction of cell cycle arrest in human NCI-H460 cells assessed as accumulation at G2/M phase at 0.5 uM incubated for 24 hrs by propidium iodide staining based flow cytometry (reference value: 16.71 %)", "type": "functional"}, "[13]": {"assay": "Antiproliferative activity against human SPCA1 cells expressing wild type EGFR assessed as reduction in cell viability after 72 hrs by MTT assay", "type": "functional, cell-based", "settings": "SPCA1, 72 h"}, "NCI-H460 [14]": {"tested_on": "NCI-H460", "assay": "Induction of apoptosis in human NCI-H460 cells assessed as viable cells at 2 uM after 48 hrs by Annexin V-FITC/propidium iodide staining based flow cytometric analysis (reference value: 91.528 %)", "type": "functional", "settings": "read-out: Activity"}, "NCI-H460 [15]": {"tested_on": "NCI-H460", "assay": "Induction of apoptosis in human NCI-H460 cells assessed as late apoptotic cells at 5 uM after 48 hrs by Annexin V-FITC/propidium iodide staining based flow cytometric analysis (reference value: 3.995 %)", "type": "functional"}, "NCI-H460 [16]": {"tested_on": "NCI-H460", "assay": "Induction of apoptosis in human NCI-H460 cells assessed as viable cells at 1 uM after 48 hrs by Annexin V-FITC/propidium iodide staining based flow cytometric analysis (reference value: 91.528 %)", "type": "functional", "settings": "read-out: Activity"}, "NCI-H460 [17]": {"tested_on": "NCI-H460", "assay": "Induction of cell cycle arrest in human NCI-H460 cells assessed as accumulation at S phase at 1 uM incubated for 24 hrs by propidium iodide staining based flow cytometry (reference value: 29.32 %)", "type": "functional"}, "[18]": {"assay": "Toxicity in nude BALB/c mouse xenografted with C26 cells assessed as abnormalities in lung size and morphology at 50 mg/kg, po administered once daily", "type": "organism-based", "settings": "in vivo"}, "NCI-H460 [19]": {"tested_on": "NCI-H460", "assay": "Antitumor activity against human NCI-H460 cells xenografted in nude BABL/c mouse assessed as tumor growth inhibition at 40 mg/kg, po administered once daily and measured every two days by caliper method relative to control", "type": "functional", "settings": "48 h, read-out: TGI"}, "NCI-H460 [20]": {"tested_on": "NCI-H460", "assay": "Induction of cell cycle arrest in human NCI-H460 cells assessed as accumulation at G0/G1 phase at 1 uM incubated for 24 hrs by propidium iodide staining based flow cytometry (reference value: 53.97 %)", "type": "functional"}, "NCI-H460 [21]": {"tested_on": "NCI-H460", "assay": "Induction of cell cycle arrest in human NCI-H460 cells assessed as accumulation at G2/M phase at 5 uM incubated for 24 hrs by propidium iodide staining based flow cytometry (reference value: 16.71 %)", "type": "functional"}, "NCI-H460 [22]": {"tested_on": "NCI-H460", "assay": "Induction of apoptosis in human NCI-H460 cells assessed as necrotic cells at 2 uM after 48 hrs by Annexin V-FITC/propidium iodide staining based flow cytometric analysis (reference value: 0.498 %)", "type": "functional"}, "NCI-H460 [23]": {"tested_on": "NCI-H460", "assay": "Antitumor activity against human NCI-H460 cells xenografted in nude BABL/c mouse assessed as upregulation of LC3-II expression in tumor tissue at 20 mg/kg, po administered once daily in presence of chloroquine diphosphate by Western blot analysis", "type": "functional, organism-based"}, "NCI-H460 [24]": {"tested_on": "NCI-H460", "assay": "Induction of apoptosis in human NCI-H460 cells assessed as necrotic cells at 10 uM after 48 hrs by Annexin V-FITC/propidium iodide staining based flow cytometric analysis (reference value: 0.498 %)", "type": "functional"}, "NCI-H460 [25]": {"tested_on": "NCI-H460", "assay": "Antitumor activity against human NCI-H460 cells xenografted in nude BABL/c mouse assessed as tumor growth inhibition at 20 mg/kg, po administered once daily and measured every two days by caliper method relative to control", "type": "functional", "settings": "48 h, read-out: TGI"}, "NCI-H460 [26]": {"tested_on": "NCI-H460", "assay": "Induction of apoptosis in human NCI-H460 cells assessed as early apoptotic cells at 10 uM after 48 hrs by Annexin V-FITC/propidium iodide staining based flow cytometric analysis (reference value: 3.980 %)", "type": "functional"}, "NCI-H460 [27]": {"tested_on": "NCI-H460", "assay": "Induction of cell cycle arrest in human NCI-H460 cells assessed as accumulation at G0/G1 phase at 0.5 uM incubated for 24 hrs by propidium iodide staining based flow cytometry (reference value: 53.97 %)", "type": "functional"}, "A549": {"tested_on": "A549", "assay": "Antiproliferative activity against human A549 cells expressing wild type EGFR assessed as reduction in cell viability after 72 hrs by MTT assay", "type": "functional, cell-based", "settings": "A549, 72 h"}, "NCI-H460 [28]": {"tested_on": "NCI-H460", "assay": "Induction of cell cycle arrest in human NCI-H460 cells assessed as accumulation at G0/G1 phase at 5 uM incubated for 24 hrs by propidium iodide staining based flow cytometry (reference value: 53.97 %)", "type": "functional"}, "NCI-H460 [29]": {"tested_on": "NCI-H460", "assay": "Induction of apoptosis in human NCI-H460 cells assessed as late apoptotic cells at 2 uM after 48 hrs by Annexin V-FITC/propidium iodide staining based flow cytometric analysis (reference value: 3.995 %)", "type": "functional"}, "L929": {"tested_on": "L929", "assay": "Cytotoxicity against mouse L929 cells", "type": "cell-based"}, "NCI-H460 [30]": {"tested_on": "NCI-H460", "assay": "Induction of apoptosis in human NCI-H460 cells assessed as early apoptotic cells at 1 uM after 48 hrs by Annexin V-FITC/propidium iodide staining based flow cytometric analysis (reference value: 3.980 %)", "type": "functional"}, "NCI-H460 [31]": {"tested_on": "NCI-H460", "assay": "Induction of apoptosis in human NCI-H460 cells assessed as viable cells at 5 uM after 48 hrs by Annexin V-FITC/propidium iodide staining based flow cytometric analysis (reference value: 91.528 %)", "type": "functional", "settings": "read-out: Activity"}, "NCI-H460 [32]": {"tested_on": "NCI-H460", "assay": "Induction of apoptosis in human NCI-H460 cells assessed as early apoptotic cells at 5 uM after 48 hrs by Annexin V-FITC/propidium iodide staining based flow cytometric analysis (reference value: 3.980 %)", "type": "functional"}, "NCI-H441": {"tested_on": "NCI-H441", "assay": "Antiproliferative activity against human NCI-H441 cells […] assessed as reduction in cell viability after 72 hrs by MTT assay", "type": "functional, cell-based", "settings": "NCI-H441, 72 h"}},
  "note": "The source made the active and inactive calls. The calls are words filed in the database; no cut-off is given here.",
  "data": [
    {"smiles": "C=CCc1ccc(OC(C)C)c(-c2cc(CC=C)cc(CN3CCC(N)CC3)c2O)c1", "values": [
      {"measurement": "Activity", "setting": "NCI-H460 [1]", "result": "Dose-dependent effect"},
      {"measurement": "Activity", "setting": "[2]", "result": "Non-Toxic"},
      {"measurement": "Activity", "setting": "NCI-H460 [3]", "result": "Dose-dependent effect"},
      {"measurement": "Activity", "setting": "[4]", "result": "Non-Toxic"},
      {"measurement": "Activity", "setting": "[5]", "result": "Non-Toxic"},
      {"measurement": "viability at 10 µM", "setting": "NCI-H460 [6]", "result": 30, "unit": "%"},
      {"measurement": "Activity", "setting": "[7]", "result": "Non-Toxic"},
      {"measurement": "Activity", "setting": "[8]", "result": "Toxic"},
      {"measurement": "inhibition in vivo at 20 mg/kg", "setting": "NCI-H460 [9]", "result": 55.9, "unit": "%"},
      {"measurement": "half-life", "setting": "[10]", "result": 2.62, "unit": "h"},
      {"measurement": "CLint", "setting": "[11]", "result": 8.8, "unit": "mL/min/g"},
      {"measurement": "Activity", "setting": "NCI-H460 [12]", "result": 21.64, "unit": "%"},
      {"measurement": "IC50", "setting": "[13]", "result": 1080, "unit": "nM"},
      {"measurement": "viability at 2 µM", "setting": "NCI-H460 [14]", "result": 88.8, "unit": "%"},
      {"measurement": "Activity", "setting": "NCI-H460 [15]", "result": 15.76, "unit": "%"},
      {"measurement": "viability at 1 µM", "setting": "NCI-H460 [16]", "result": 91.1, "unit": "%"},
      {"measurement": "Activity", "setting": "NCI-H460 [17]", "result": 23.89, "unit": "%"},
      {"measurement": "Activity", "setting": "[18]", "result": "Non-Toxic"},
      {"measurement": "inhibition in vivo at 40 mg/kg", "setting": "NCI-H460 [19]", "result": 56.8, "unit": "%"},
      {"measurement": "Activity", "setting": "NCI-H460 [20]", "result": 56.47, "unit": "%"},
      {"measurement": "Activity", "setting": "NCI-H460 [21]", "result": 17.5, "unit": "%"},
      {"measurement": "Activity", "setting": "NCI-H460 [22]", "result": 0.874, "unit": "%"},
      {"measurement": "Activity", "setting": "NCI-H460 [23]", "result": "Active"},
      {"measurement": "Activity", "setting": "NCI-H460 [24]", "result": 1.58, "unit": "%"},
      {"measurement": "inhibition in vivo at 20 mg/kg", "setting": "NCI-H460 [25]", "result": 33.5, "unit": "%"},
      {"measurement": "Activity", "setting": "NCI-H460 [26]", "result": 34.82, "unit": "%"},
      {"measurement": "Activity", "setting": "NCI-H460 [27]", "result": 54.79, "unit": "%"},
      {"measurement": "IC50", "setting": "A549", "result": 910, "unit": "nM"},
      {"measurement": "Activity", "setting": "NCI-H460 [28]", "result": 59.89, "unit": "%"},
      {"measurement": "Activity", "setting": "NCI-H460 [29]", "result": 4.926, "unit": "%"},
      {"measurement": "IC50", "setting": "L929", "result": 6240, "unit": "nM"},
      {"measurement": "Activity", "setting": "NCI-H460 [30]", "result": 4.467, "unit": "%"},
      {"measurement": "viability at 5 µM", "setting": "NCI-H460 [31]", "result": 53.5, "unit": "%"},
      {"measurement": "Activity", "setting": "NCI-H460 [32]", "result": 30.087, "unit": "%"},
      {"measurement": "IC50", "setting": "NCI-H441", "result": 940, "unit": "nM"}
    ]}
  ]
}
